Assay results from PubChem BioAssay AID330 (DTP/NCI, 2004).
Values joined by “and” are separate entries in the source; they are usually repeats but may differ in a detail not shown here. Equal entries are not always repeated. Toxic doses and inconclusive results are not listed.

Test system: P388 leukemia ip, CD2F1 mice, survival T/C
Assay: NCI In Vivo Anticancer Drug Screen. Data for tumor model P388 Leukemia (intraperitoneal) in CD2F1 (CDF1) mice
Conditions: endpoint: median survival time, higher = longer survival
Outline: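 Mice carrying the transplanted tumor received test compound or vehicle. Survival was recorded in each group, and the value is the treated-group measurement divided by that of the vehicle-treated control group.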

[1] = dose: 60.0 mg/kg/injection, schedule: Q01DX005 (ip), vehicle: saline with Tween-80
[2] = dose: 240.0 mg/kg/injection, schedule: Q01DX005 (ip), vehicle: saline with Tween-80
[3] = dose: 50.0 mg/kg/injection, schedule: Q01DX009 (ip), vehicle: Klucel (hydroxypropylcellulose) (HPC)
[4] = dose: 100.0 mg/kg/injection, schedule: Q01DX009 (ip), vehicle: Klucel (hydroxypropylcellulose) (HPC)
[5] = dose: 200.0 mg/kg/injection, schedule: Q01DX009 (ip), vehicle: Klucel (hydroxypropylcellulose) (HPC)
[6] = dose: 50.0 mg/kg/injection, schedule: Q01DX005 (ip), vehicle: saline with Tween-80
[7] = dose: 100.0 mg/kg/injection, schedule: Q01DX005 (ip), vehicle: saline with Tween-80
[8] = dose: 200.0 mg/kg/injection, schedule: Q01DX005 (ip), vehicle: saline with Tween-80
[9] = dose: 100.0 mg/kg/injection, schedule: Q04DX002 (ip), vehicle: Klucel (hydroxypropylcellulose) (HPC)
[10] = dose: 200.0 mg/kg/injection, schedule: Q04DX002 (ip), vehicle: Klucel (hydroxypropylcellulose) (HPC)
[11] = dose: 400.0 mg/kg/injection, schedule: Q04DX002 (ip), vehicle: Klucel (hydroxypropylcellulose) (HPC)
[12] = dose: 100.0 mg/kg/injection, schedule: Q04DX003 (ip), vehicle: saline with Tween-80
[13] = dose: 25.0 mg/kg/injection, schedule: Q01DX009 (ip), vehicle: Klucel (hydroxypropylcellulose) (HPC)
[14] = dose: 120.0 mg/kg/injection, schedule: Q01DX005 (ip), vehicle: saline with Tween-80

OC(Cc1cnc2ccccc2c1)(c1ccccc1)c1ccccc1
T/C (dose: 50.0 mg/kg/injection, schedule: Q04DX002 (ip), vehicle: saline with Tween-80): 111 % of control
T/C (dose: 100.0 mg/kg/injection, schedule: Q04DX002 (ip), vehicle: saline with Tween-80): 96 % of control
T/C (dose: 200.0 mg/kg/injection, schedule: Q04DX002 (ip), vehicle: saline with Tween-80): 88 % of control

Cn1c(=S)[nH]c2scc(-c3ccccc3)c2c1=O
T/C [1]: 87 % of control
T/C [2]: 96 % of control

CCOC(=O)NNC1=C(CC(=O)c2ccccc2)C(=O)CC(C)(C)C1
T/C [3]: 101 % of control
T/C [4]: 102 % of control
T/C [5]: 109 % of control

CCNC(=O)OCc1c(COC(=O)NCC)c2n(c1C)CCc1ccccc1-2
T/C (dose: 12.5 mg/kg/injection, schedule: Q01DX009 (ip), vehicle: distilled water + Tween-80): 157 % of control and 185 % of control
T/C (dose: 25.0 mg/kg/injection, schedule: Q01DX009 (ip), vehicle: distilled water + Tween-80): 166 % of control

CC(=O)C(N)CC(C)C (stereo not given)
T/C (dose: 50.0 mg/kg/injection, schedule: Q01DX005 (ip), vehicle: saline): 98 % of control
T/C (dose: 100.0 mg/kg/injection, schedule: Q01DX005 (ip), vehicle: saline): 100 % of control
T/C (dose: 200.0 mg/kg/injection, schedule: Q01DX005 (ip), vehicle: saline): 107 % of control

Cc1ccccc1N1C(=O)C(C)(C)OC1=S
T/C [6]: 97 % of control
T/C [7]: 99 % of control
T/C [8]: 103 % of control

C[S+](C)CCCNC(=O)c1csc(-c2csc(N)n2)n1
T/C (dose: 6.25 mg/kg/injection, schedule: Q01DX005 (ip), vehicle: water): 100 % of control
T/C (dose: 12.5 mg/kg/injection, schedule: Q01DX005 (ip), vehicle: water): 96 % of control
T/C (dose: 25.0 mg/kg/injection, schedule: Q01DX005 (ip), vehicle: water): 96 % of control

O=c1[nH]c(-c2cccc(-c3nnc(-c4ccccc4Cl)c(=O)[nH]3)c2)nnc1-c1ccccc1Cl
T/C [9]: 100 % of control
T/C [10]: 100 % of control
T/C [11]: 96 % of control

CC1(C)C(C)(C)C1(Cl)S(C)(=O)=O
T/C [12]: 101 % of control
T/C (dose: 200.0 mg/kg/injection, schedule: Q04DX003 (ip), vehicle: saline with Tween-80): 106 % of control
T/C (dose: 400.0 mg/kg/injection, schedule: Q04DX003 (ip), vehicle: saline with Tween-80): 106 % of control

CCCCCCC(/C=C/c1ccccc1)=N\O
T/C (dose: 6.25 mg/kg/injection, schedule: Q01DX009 (ip), vehicle: Klucel (hydroxypropylcellulose) (HPC)): 107 % of control
T/C (dose: 12.5 mg/kg/injection, schedule: Q01DX009 (ip), vehicle: Klucel (hydroxypropylcellulose) (HPC)): 102 % of control
T/C [13]: 103 % of control and 104 % of control
T/C [3]: 108 % of control and 112 % of control
T/C [4]: 103 % of control
T/C [5]: 104 % of control and 110 % of control
T/C (dose: 400.0 mg/kg/injection, schedule: Q01DX009 (ip), vehicle: Klucel (hydroxypropylcellulose) (HPC)): 109 % of control and 98 % of control

Cc1nc(C)c(Cl)c(OS(=O)(=O)CCCCl)c1Cl
T/C [13]: 110 % of control (2×) and 92 % of control
T/C (dose: 35.0 mg/kg/injection, schedule: Q01DX009 (ip), vehicle: Klucel (hydroxypropylcellulose) (HPC)): 110 % of control and 95 % of control
T/C [3]: 105 % of control and 120 % of control and 95 % of control
T/C (dose: 75.0 mg/kg/injection, schedule: Q01DX009 (ip), vehicle: Klucel (hydroxypropylcellulose) (HPC)): 94 % of control

N#CCCSC(=S)C1CCCC1=N (stereo not given)
T/C (dose: 12.5 mg/kg/injection, schedule: Q01DX009 (ip), vehicle: saline with Tween-80): 114 % of control and 123 % of control
T/C (dose: 25.0 mg/kg/injection, schedule: Q01DX009 (ip), vehicle: saline with Tween-80): 110 % of control and 116 % of control
T/C (dose: 50.0 mg/kg/injection, schedule: Q01DX009 (ip), vehicle: saline with Tween-80): 104 % of control and 109 % of control
T/C (dose: 100.0 mg/kg/injection, schedule: Q01DX009 (ip), vehicle: saline with Tween-80): 102 % of control and 116 % of control

O=c1oc2c(c(N(c3ccccc3)c3ccccc3)c1Cl)CSc1ccccc1-2
T/C [12]: 90 % of control

O=C1C(N=Nc2cc(Cl)ccc2Cl)C(O)N(c2ccc(Cl)cc2)C(=S)N1c1cccc(Cl)c1Cl (stereo not given)
T/C [9]: 100 % of control
T/C [10]: 101 % of control
T/C [11]: 99 % of control

COC1=NCc2ccccc2C2(OC)C(C)(C)C12C#N (stereo not given)
T/C [6]: 96 % of control
T/C [7]: 99 % of control
T/C [8]: 101 % of control

O=C1Nc2ccccc2/C1=N/N=c1\scc(-c2ccc(Br)cc2)n1-c1ccc(Cl)cc1
T/C (dose: 50.0 mg/kg/injection, schedule: Q01DX001 (ip), vehicle: saline with Tween-80): 93 % of control
T/C (dose: 100.0 mg/kg/injection, schedule: Q01DX001 (ip), vehicle: saline with Tween-80): 99 % of control
T/C (dose: 200.0 mg/kg/injection, schedule: Q01DX001 (ip), vehicle: saline with Tween-80): 89 % of control and 94 % of control

CC/C=C(\CC)C(=O)O
T/C (dose: 50.0 mg/kg/injection, schedule: Q01DX009 (ip), vehicle: saline): 90 % of control
T/C (dose: 100.0 mg/kg/injection, schedule: Q01DX009 (ip), vehicle: saline): 100 % of control
T/C (dose: 200.0 mg/kg/injection, schedule: Q01DX009 (ip), vehicle: saline): 102 % of control

O=C1c2cccc3cc([N+](=O)[O-])cc(c23)C(=O)N1CCNCCNCCNCCN1C(=O)c2cccc3cc([N+](=O)[O-])cc(c23)C1=O
T/C (dose: 5.0 mg/kg/injection, schedule: Q04DX002 (ip), vehicle: saline with Tween-80): 107 % of control and 124 % of control
T/C (dose: 10.0 mg/kg/injection, schedule: Q04DX002 (ip), vehicle: saline with Tween-80): 122 % of control
T/C (dose: 80.0 mg/kg/injection, schedule: Q04DX002 (ip), vehicle: saline with Tween-80): 122 % of control

CC1(C)OC2OC(C3COC(=O)O3)C(O)C2O1 (stereo not given)
T/C (dose: 50.0 mg/kg/injection, schedule: Q01DX005 (ip), vehicle: Klucel (hydroxypropylcellulose) (HPC)): 95 % of control
T/C (dose: 100.0 mg/kg/injection, schedule: Q01DX005 (ip), vehicle: Klucel (hydroxypropylcellulose) (HPC)): 98 % of control
T/C (dose: 200.0 mg/kg/injection, schedule: Q01DX005 (ip), vehicle: Klucel (hydroxypropylcellulose) (HPC)): 101 % of control

COCCn1cc(F)c(=O)[nH]c1=O
T/C (dose: 30.0 mg/kg/injection, schedule: Q04DX002 (ip), vehicle: saline): 110 % of control
T/C (dose: 60.0 mg/kg/injection, schedule: Q04DX002 (ip), vehicle: saline): 104 % of control
T/C (dose: 100.0 mg/kg/injection, schedule: Q04DX002 (ip), vehicle: saline): 115 % of control and 121 % of control
T/C (dose: 120.0 mg/kg/injection, schedule: Q04DX002 (ip), vehicle: saline): 119 % of control
T/C (dose: 200.0 mg/kg/injection, schedule: Q04DX002 (ip), vehicle: saline): 121 % of control
T/C (dose: 240.0 mg/kg/injection, schedule: Q04DX002 (ip), vehicle: saline): 121 % of control
T/C (dose: 400.0 mg/kg/injection, schedule: Q04DX002 (ip), vehicle: saline): 118 % of control and 121 % of control

CN=c1nc2n3c(cccc3n1)NC(C)=N2
T/C [1]: 100 % of control
T/C [14]: 92 % of control
T/C [2]: 99 % of control

O=C(Nc1ncnc2nc[nH]c12)NC1CCCCC1
T/C (dose: 0.75 mg/kg/injection, schedule: Q01DX005 (ip), vehicle: saline): 106 % of control
T/C (dose: 1.5 mg/kg/injection, schedule: Q01DX005 (ip), vehicle: saline): 98 % of control
T/C (dose: 3.0 mg/kg/injection, schedule: Q01DX005 (ip), vehicle: saline): 95 % of control
T/C (dose: 6.25 mg/kg/injection, schedule: Q01DX005 (ip), vehicle: saline with Tween-80): 89 % of control
T/C (dose: 12.5 mg/kg/injection, schedule: Q01DX005 (ip), vehicle: saline with Tween-80): 98 % of control
T/C (dose: 25.0 mg/kg/injection, schedule: Q01DX005 (ip), vehicle: saline with Tween-80): 86 % of control
T/C [6]: 109 % of control

CC1CC(N=Cc2ccc3c(c2)OCO3)CC(C)(C)C1 (stereo not given)
T/C [6]: 103 % of control
T/C [7]: 96 % of control
T/C [8]: 97 % of control

O=c1[nH]c(N[N+](=O)[O-])nc(-c2ccccc2)c1Br
T/C [1]: 98 % of control
T/C [14]: 100 % of control
T/C [2]: 99 % of control

N#CC(N)C(F)c1ccccc1 (stereo not given)
T/C (dose: 100.0 mg/kg/injection, schedule: Q01DX001 (ip), vehicle: Klucel (hydroxypropylcellulose) (HPC)): 100 % of control
T/C (dose: 200.0 mg/kg/injection, schedule: Q01DX001 (ip), vehicle: Klucel (hydroxypropylcellulose) (HPC)): 101 % of control
T/C (dose: 400.0 mg/kg/injection, schedule: Q01DX001 (ip), vehicle: Klucel (hydroxypropylcellulose) (HPC)): 101 % of control
